Where two headings read alike, the source gives them in different places.
Key:
[1] = tested on: OVCAR-5; test: SRB 48 h growth assay, Ovarian OVCAR-5; type: cell-based, human; conditions: OVCAR-5, Ovarian
[2] = in vitro anticancer activity, non-small cell lung panel; type: cell-based; conditions: Homo sapiens; nine non-small cell lung cancer cell lines, exposure at least 48 h; read-out: GI50, range over panel
[3] = tested on: MOLT-4; test: SRB 48 h growth assay, Leukemia MOLT-4; type: cell-based, human; conditions: MOLT-4, Leukemia
[4] = tested on: MDA-MB-231/ATCC; test: SRB 48 h growth assay, Breast MDA-MB-231/ATCC; type: cell-based, human
[5] = tested on: KM12; test: SRB 48 h growth assay, Colon KM12; type: cell-based, human
[6] = tested on: HCT-116; test: SRB 48 h growth assay, Colon HCT-116; type: cell-based, human; conditions: Homo sapiens, HCT-116, Colon
[7] = tested on: NCI-H23; test: SRB 48 h growth assay, Non-small Cell Lung NCI-H23; type: cell-based, human
[8] = tested on: M14; test: SRB 48 h growth assay, Melanoma M14; type: cell-based, human
[9] = tested on: MCF7; test: SRB 48 h growth assay, Breast MCF7; type: cell-based, human
[10] = tested on: SK-OV-3; test: SRB 48 h growth assay, Ovarian SK-OV-3; type: cell-based, human; conditions: SK-OV-3, Ovarian
[11] = tested on: UACC-62; test: SRB 48 h growth assay, Melanoma UACC-62; type: cell-based, human; conditions: UACC-62, Melanoma
[12] = tested on: seven colon cancer cell line (COLO 205, HCC-2998, HCT-116, HCT-15, HT29, KM12 and SW-620); test: in vitro anticancer activity, colon panel; type: cell-based; conditions: Homo sapiens; seven colon cancer cell lines, exposure at least 48 h; read-out: GI50, range over panel
[13] = tested on: NCI/ADR-RES; test: SRB 48 h growth assay, Ovarian NCI/ADR-RES; type: cell-based, human
[14] = tested on: COLO 205; test: SRB 48 h growth assay, Colon COLO 205; type: cell-based, human; conditions: COLO 205, Colon
[15] = tested on: SF-268; test: SRB 48 h growth assay, CNS SF-268; type: cell-based, human; conditions: SF-268, CNS
[16] = tested on: NCI-H322M; test: SRB 48 h growth assay, Non-small Cell Lung NCI-H322M; type: cell-based, human
[17] = tested on: HL-60(TB); test: SRB 48 h growth assay, Leukemia HL-60(TB); type: cell-based, human
[18] = tested on: HT-29; test: SRB 48 h growth assay, Colon HT-29; type: cell-based, human; conditions: HT-29, Colon
[19] = tested on: OVCAR-3; test: SRB 48 h growth assay, Ovarian OVCAR-3; type: cell-based, human; conditions: Homo sapiens, OVCAR-3, Ovarian
[20] = tested on: SK-MEL-2; test: SRB 48 h growth assay, Melanoma SK-MEL-2; type: cell-based, human; conditions: SK-MEL-2, Melanoma
[21] = tested on: LOX IMVI; test: SRB 48 h growth assay, Melanoma LOX IMVI; type: cell-based, human
[22] = tested on: RPMI-8226; test: SRB 48 h growth assay, Leukemia RPMI-8226; type: cell-based, human; conditions: RPMI-8226, Leukemia
[23] = tested on: HOP-62; test: SRB 48 h growth assay, Non-small Cell Lung HOP-62; type: cell-based, human; conditions: HOP-62, Non-small Cell Lung
[24] = tested on: SN12C; test: SRB 48 h growth assay, Renal SN12C; type: cell-based, human
[25] = tested on: OVCAR-4; test: SRB 48 h growth assay, Ovarian OVCAR-4; type: cell-based, human; conditions: OVCAR-4, Ovarian
[26] = tested on: two prostate cancer cell line (PC-3, DU-145); test: in vitro anticancer activity, prostate panel; type: cell-based; conditions: Homo sapiens; two prostate cancer cell lines, exposure at least 48 h; read-out: GI50, range over panel
[27] = tested on: 786-0; test: SRB 48 h growth assay, Renal 786-0; type: cell-based, human; conditions: 786-0, Renal
[28] = Homo sapiens, read-out: Growth Inhibition GI50
[29] = Homo sapiens, read-out: Log10 GI50 (converted)
[30] = Homo sapiens, read-out: Log10 LC50 (converted)
[31] = read-out: Growth Inhibition GI50
[32] = read-out: Log10 GI50 (converted)

## C#Cc1ccc(-n2c(/C=C/c3ccc4ccccc4c3)nc3ncccc3c2=O)cc1 [4s, (E)-3-(4-Ethynylphenyl)-2-(2-(naphthalen-2-yl)vinyl)pyrido[2,3-d]pyrimidin-4(3H)-one]
[1]; [28]
  GI50: 6.88 µM
[1]; [29]
  GI50: 6.92 µM
[1]; [30]
  CC50: > 100 µM
[1]
  Log10 TGI50: >−4.00
[2]
  GI50: 0.18 to 0.7 µM
[3]; [28]
  GI50: 2 µM
[3]; [29]
  GI50: 2 µM
[3]; [30]
  CC50: > 100 µM
[3]
  Log10 TGI50: >−4.00
[4]
  Log10 TGI50: >−4.00
[4]; [28]
  GI50: 3.74 µM
[4]; [29]
  GI50: 3.72 µM
[4]; [30]
  CC50: > 100 µM
[5]
  Log10 TGI50: >−4.00
[5]; [28]
  GI50: 2.95 µM
[5]; [29]
  GI50: 2.95 µM
[5]; [30]
  CC50: > 100 µM
[6]; [31]
  GI50: 2.22 µM
[6]; [32]
  GI50: 2.24 µM
[7]
  Log10 TGI50: >−4.00
[7]; [28]
  GI50: 6.39 µM
[7]; [29]
  GI50: 6.46 µM
[7]; [30]
  LC50: > 100 µM
[8]
  Log10 TGI50: −5.36
[8]; [28]
  GI50: 2.07 µM
[8]; [29]
  GI50: 2.09 µM
[8]; [30]
  CC50: 4.37 µM
[9]
  Log10 TGI50: >−4.00
[9]; [28]
  GI50: 2.43 µM
[9]; [29]
  GI50: 2.45 µM
[9]; [30]
  CC50: > 100 µM
[10]; [28]
  GI50: 7.55 µM
[10]; [29]
  GI50: 7.59 µM
[10]; [30]
  CC50: > 100 µM
[10]
  Log10 TGI50: >−4.00
[11]; [28]
  GI50: 2.49 µM
[11]; [29]
  GI50: 2.51 µM
[11]; [30]
  CC50: > 100 µM
[11]
  Log10 TGI50: >−4.00
[12]
  GI50: 0.3 to 0.36 µM
[13]
  Log10 TGI50: >−4.00
[13]; [28]
  GI50: 3.29 µM
[13]; [29]
  GI50: 3.31 µM
[13]; [30]
  CC50: > 100 µM
[14]
  Log10 TGI50: −5.44
[14]; [28]
  GI50: 2.06 µM
[14]; [29]
  GI50: 2.04 µM
[14]; [30]
  CC50: 3.63 µM
[15]; [28]
  GI50: 2.6 µM
[15]; [29]
  GI50: 2.63 µM
[15]; [30]
  CC50: > 100 µM
[15]
  Log10 TGI50: >−4.00
[16]
  Log10 TGI50: >−4.00
[16]; [28]
  GI50: 7.3 µM
[16]; [29]
  GI50: 7.24 µM
[16]; [30]
  CC50: > 100 µM
[17]
  Log10 TGI50: −5.05
[17]; [28]
  GI50: 1.66 µM
[17]; [29]
  GI50: 1.66 µM
[17]; [30]
  CC50: 8.91 µM
[18]
  Log10 TGI50: >−4.00
[18]; [28]
  GI50: 3.26 µM
[18]; [29]
  GI50: 3.24 µM
[18]; [30]
  CC50: > 100 µM
[19]; [31]
  GI50: 2.04 µM
[19]; [32]
  GI50: 2.04 µM
[20]; [28]
  GI50: 2.41 µM
[20]; [29]
  GI50: 2.4 µM
[20]; [30]
  CC50: 6.17 µM
[20]
  Log10 TGI50: −5.21
[21]
  Log10 TGI50: −5.51
[21]; [28]
  GI50: 0.51 µM
[21]; [29]
  GI50: 0.513 µM
[21]; [30]
  CC50: 3.09 µM
[22]; [28]
  GI50: 0.45 µM
[22]; [29]
  GI50: 0.447 µM
[22]; [30]
  CC50: > 100 µM
[22]
  Log10 TGI50: >−4.00
[23]
  Log10 TGI50: >−4.00
[23]; [28]
  GI50: 7.45 µM
[23]; [29]
  GI50: 7.41 µM
[23]; [30]
  CC50: > 100 µM
[24]
  Log10 TGI50: >−4.00
[24]; [28]
  GI50: 3.29 µM
[24]; [29]
  GI50: 3.31 µM
[24]; [30]
  CC50: > 100 µM
[25]; [28]
  GI50: 1.95 µM
[25]; [29]
  GI50: 1.95 µM
[25]; [30]
  CC50: > 100 µM
[25]
  Log10 TGI50: >−4.00
[26]
  GI50: 0.28 to 0.34 µM
[27]
  Log10 TGI50: >−4.00
[27]; [28]
  GI50: 4.08 µM
[27]; [29]
  GI50: 4.07 µM
[27]; [30]
  CC50: > 100 µM
